Consider one molecule from US9364479B2, “Use of a receptor-type kinase modulator for treating polycystic kidney disease” (SYMPHONY EVOLUTION, INC., priority 2010, dated 2016).

Marks after values point to notes of the source that are not given here.

One series deals with EGFR WT (pTet-On/Lx-1) (Homo sapiens, UniProt P00533). Description: EGFR phosphorylation ELISA in transfected Lx-1 cells.
Series [1] deals with T1, EGFR phosphorylation (H1975 cells) (Homo sapiens, UniProt P00533, L858R/T790M).
T1 construct: host or cells: H1975 (cultured cells; s.c. xenografts in mice)
Description: Immunoblot analysis of H1975 cell lysates. It counts as cell-based. The protocol:
For the H1975 immunoblot studies, 3×10^5 cells were plated in each well (12-well plate) and incubated for 16 h in complete RPMI 1640, rinsed with fetal bovine serum-free RPMI 1640, and incubated with serial dilutions of test compounds in fetal bovine serum-free medium for 2 h followed by stimulation with 100 ng/mL human recombinant EGF for 10 min. Whole-cell protein lysates were prepared as described above and centrifuged for 10 min at 13,000×g at 4° C. to remove any insoluble material. Total protein was determined using bicinchoninic acid reagent and an equal amount of protein was combined with LDS loading buffer (Invitrogen) according to the manufacturer's instructions. Proteins were separated by gel electrophoresis on 4% to 15% polyacrylamide gels, transferred to nitrocellulose membranes, and detected by immunoblotting. Antibody:antigen complexes were detected using chemiluminescence. The following antibodies from Cell Signaling Technology were used at a 1:1,000 dilution: anti-EGFR, anti-pEGFR^Tyr1068, anti-AKT, anti-pAKT^Ser473, anti-ERK, and anti-pERK^Thr202/Tyr204. The anti-β-actin primary antibody (Accurate Chemical and Scientific) was used at 1:10,000 and the horseradish peroxidase-coupled secondary antibodies were purchased from Jackson ImmunoResearch and used at 1:5,000.

A short description of another series: in vitro. It counts as in vitro ADME, mouse and human. The following applies: rat, mouse, human, plasma.
The target of a further series is T2, Leukotriene D4, LTD4 (Homo sapiens, UniProt Q9Y271).
T2 construct: NovaScreen
T2 sequence (Q9Y271 whole entry): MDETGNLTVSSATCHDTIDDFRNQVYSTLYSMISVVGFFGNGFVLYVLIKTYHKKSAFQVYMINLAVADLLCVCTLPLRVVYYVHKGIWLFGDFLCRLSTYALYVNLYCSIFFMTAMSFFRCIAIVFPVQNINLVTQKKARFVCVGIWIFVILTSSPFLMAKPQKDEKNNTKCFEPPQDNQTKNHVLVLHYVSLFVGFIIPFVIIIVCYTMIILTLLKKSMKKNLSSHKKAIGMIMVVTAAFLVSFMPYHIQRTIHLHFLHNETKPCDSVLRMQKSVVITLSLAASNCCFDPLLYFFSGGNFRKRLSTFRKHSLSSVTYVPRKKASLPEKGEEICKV
The series can be described thus: NovaScreen assay. It counts as binding. The following applies: read-out: Inhibition, 10 μM XL-647.

Series [2] deals with subjects with advanced solid tumors. Description: Clinical Study XL-647-002 (Phase 1, daily dosing).
The subject of the next series is Phospho AKT Ser473. The series can be described thus: Immunohistochemical analysis of phosphorylation in H1975 xenografts. It counts as in vivo, mouse. The following applies: 14-day dosing. The protocol:
For immunohistochemical analysis of H1975, MDA-MB-231 and other xenografts, tumors were excised after euthanasia and fixed in zinc fixative (BD Biosciences) for 48 h before being processed into paraffin blocks. Serial sections at 5 μm were obtained from the area of largest possible surface for each tumor and stained using standard methods. The following antibodies were used: Ki67 (SP6; Labvision), CD31 (MECA.32; BD Biosciences), pERK^Thr202/Tyr204 (phospho-p44/42 mitogen-activated protein kinase; Cell Signaling Technology), pAKT^Ser473 (Cell Signaling Technology), and pEGFR^Tyr1068 (Cell Signaling Technology). For immunofluorescent staining, sections were then incubated with Alexa 594-conjugated goat anti-rabbit secondary antibody (Invitrogen) and mounted in Fluorescent Mounting Medium (DAKO) containing 4′,6-diamidino-2-phenylindole (Molecular Probes) as a nuclear counterstain. Fluorescent staining was visualized using a Zeiss Axiolmager and digitally captured using a Zeiss high-resolution camera coupled to AxioVision image analysis software. Two to three nonoverlapping representative fields were captured at ×200 or ×400 magnification depending on histologic readout and quantified using the integrated morphometric analysis functions in Metamorph software (Universal Imaging Corp.). Apoptotic cells were detected using terminal deoxynucleotidyl transferase-mediated dUTP nick end labeling in situ cell death detection kit according to the manufacturer's instructions (Roche Diagnostics GmbH).
Results are presented as mean±SD or SE as indicated for each graph or table. For IC50 comparison in the A431 cell viability experiment, two sample Student's t tests were applied to determine P values for each IC50 pair assuming that the random fluctuations of replicates around the dose-response curve are distributed [log]normally with the individual replicates used as the ‘sample size’ for the t test (nine point dose response done in triplicate). For statistical analysis of immunohistochemical results from in vivo studies, two-tailed Student's t test analysis and Bonferroni correction were done to identify significant differences compared with vehicle control group (multiple use of a single vehicle control group) with a cumulative minimal requirement of P<0.05.

Another series concerns the target T3, c-Abl (Homo sapiens, UniProt P00519).
T3 construct: Human, P118-; mM MgCl2, 3 mM MnCl2, 1; S553, N-GST,; GST (N); purchased ProQinase
Description: Chemiluminescent kinase assay. It is filed as biochemical. The protocol:
(§1) A Luciferase-coupled chemiluminescence assay was used to measure EGFR and KDR (VEGFR2) activity. Kinase activity was measured as the percentage of ATP consumed following the kinase reaction using luciferase-luciferin-coupled chemiluminescence. Reactions were conducted in 384-well white, medium-binding microtiter plates (Greiner). […] The reaction mixture was incubated at room temperature for 4 h. Following the kinase reaction, a 20 μL aliquot of Kinase Glo (Promega) was added and luminescence signal was measured using a Victor2 plate reader (Perkin-Elmer). Total ATP consumption was limited to 50%.
(§2) Further screening was performed using the biochemical assay methods of Example 2. Additional description of the components and concentrations are summarized in Table 8, Table 9, and Table 10, below.

The target of another series is T4, c-Met (Homo sapiens, UniProt P08581).
T4 construct: Human, P948-; MgCl2, 0.02% Triton X-100,; S1343, N-GST-; GST (N); purchased ProQinase
T4 sequence (P08581 956-1390 limits assumed): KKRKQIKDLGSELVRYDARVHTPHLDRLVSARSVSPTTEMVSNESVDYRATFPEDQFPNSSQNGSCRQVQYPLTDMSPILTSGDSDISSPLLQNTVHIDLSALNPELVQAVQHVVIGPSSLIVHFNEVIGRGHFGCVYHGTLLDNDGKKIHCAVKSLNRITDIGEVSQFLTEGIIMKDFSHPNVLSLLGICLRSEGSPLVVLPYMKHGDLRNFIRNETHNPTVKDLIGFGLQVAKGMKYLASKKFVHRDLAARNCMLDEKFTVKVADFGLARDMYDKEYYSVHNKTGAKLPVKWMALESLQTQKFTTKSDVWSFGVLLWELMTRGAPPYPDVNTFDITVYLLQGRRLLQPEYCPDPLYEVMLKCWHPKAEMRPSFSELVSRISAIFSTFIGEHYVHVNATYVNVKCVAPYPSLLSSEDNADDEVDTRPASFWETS
Description: Chemiluminescent kinase assay. It is filed as biochemical. The protocol: as §1, §2

The target of the next series is T5, Lck (Homo sapiens, UniProt P06239).
T5 construct: Human, Q225-; mM MgCl2, 3 mM MnCl2, 1; P510, N-GST/C-; GST (N); EF (C)
T5 sequence (P06239 225-509 limits assumed): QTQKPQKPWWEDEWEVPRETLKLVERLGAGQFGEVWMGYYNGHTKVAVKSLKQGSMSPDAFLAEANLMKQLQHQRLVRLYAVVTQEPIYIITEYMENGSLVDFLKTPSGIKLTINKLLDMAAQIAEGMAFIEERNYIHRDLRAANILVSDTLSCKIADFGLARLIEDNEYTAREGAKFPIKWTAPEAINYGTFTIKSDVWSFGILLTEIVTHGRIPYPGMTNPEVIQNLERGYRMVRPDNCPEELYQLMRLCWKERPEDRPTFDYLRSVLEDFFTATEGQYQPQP
The series can be described thus: Chemiluminescent kinase assay. It counts as biochemical. The protocol: as §1, §2

The target of series [3] is T6, Choline Acetyltransferase (Homo sapiens, UniProt P28329).
T6 construct: NovaScreen
T6 sequence (P28329 whole entry): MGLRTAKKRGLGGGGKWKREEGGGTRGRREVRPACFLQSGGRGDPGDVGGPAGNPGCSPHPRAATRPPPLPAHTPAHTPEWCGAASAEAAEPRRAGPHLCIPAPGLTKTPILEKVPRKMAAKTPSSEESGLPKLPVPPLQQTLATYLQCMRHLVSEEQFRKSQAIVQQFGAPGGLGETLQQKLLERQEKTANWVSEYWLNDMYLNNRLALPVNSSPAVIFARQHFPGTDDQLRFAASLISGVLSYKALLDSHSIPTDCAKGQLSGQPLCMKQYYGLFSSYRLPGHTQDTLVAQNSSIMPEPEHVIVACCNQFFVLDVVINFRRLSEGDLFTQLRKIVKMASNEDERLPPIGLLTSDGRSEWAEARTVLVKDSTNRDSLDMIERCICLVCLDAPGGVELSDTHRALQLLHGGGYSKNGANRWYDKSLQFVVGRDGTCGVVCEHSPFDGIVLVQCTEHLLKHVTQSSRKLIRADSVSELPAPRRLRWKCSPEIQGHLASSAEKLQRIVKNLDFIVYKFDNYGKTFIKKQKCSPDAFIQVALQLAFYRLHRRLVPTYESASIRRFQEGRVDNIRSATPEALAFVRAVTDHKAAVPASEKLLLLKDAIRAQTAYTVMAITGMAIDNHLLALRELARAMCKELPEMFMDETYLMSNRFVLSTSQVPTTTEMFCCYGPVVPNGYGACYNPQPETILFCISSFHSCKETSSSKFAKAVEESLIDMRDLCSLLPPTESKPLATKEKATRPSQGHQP
Description: NovaScreen assay. It is filed as biochemical. Conditions: read-out: Inhibition, 10 μM XL-647.

For a further series, the target named is T7, Vasopressin 1 (Homo sapiens, UniProt P37288).
T7 construct: NovaScreen
T7 sequence (P37288 whole entry): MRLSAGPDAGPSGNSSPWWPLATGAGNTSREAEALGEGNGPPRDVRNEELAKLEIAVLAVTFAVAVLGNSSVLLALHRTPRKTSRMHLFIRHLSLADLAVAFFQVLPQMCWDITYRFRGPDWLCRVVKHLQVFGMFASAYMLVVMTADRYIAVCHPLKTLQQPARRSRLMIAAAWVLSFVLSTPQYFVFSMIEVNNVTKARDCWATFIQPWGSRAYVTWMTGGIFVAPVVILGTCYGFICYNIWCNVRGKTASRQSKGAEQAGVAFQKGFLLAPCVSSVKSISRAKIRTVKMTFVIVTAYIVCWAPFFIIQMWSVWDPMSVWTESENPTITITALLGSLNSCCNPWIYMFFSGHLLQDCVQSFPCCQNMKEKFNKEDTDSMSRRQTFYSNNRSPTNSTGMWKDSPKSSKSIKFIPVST
Description: NovaScreen assay. It counts as binding. Conditions: read-out: Inhibition, 10 μM XL-647.

For series [4], the system named is Corticotropin Releasing Factor, Non-selective. Description: NovaScreen assay. It counts as binding.
Series [5] can be described thus: Clinical Study XL-647-001 (Phase 1, Intermittent 5&9 schedule). Conditions: human, in vivo. The protocol: (§3) Enrollment is complete, and all subjects have been off study as of 31 May 2007. Subjects initially received a powder in bottle (PIB) formulation using mass-based dosing. […] The final cohort received a fixed dose of 350 mg in a tablet formulation.
The test system of series [6] is subjects with advanced solid tumors. The series is described as above. The protocol:
as §3

T3 sequence (P00519 118-553): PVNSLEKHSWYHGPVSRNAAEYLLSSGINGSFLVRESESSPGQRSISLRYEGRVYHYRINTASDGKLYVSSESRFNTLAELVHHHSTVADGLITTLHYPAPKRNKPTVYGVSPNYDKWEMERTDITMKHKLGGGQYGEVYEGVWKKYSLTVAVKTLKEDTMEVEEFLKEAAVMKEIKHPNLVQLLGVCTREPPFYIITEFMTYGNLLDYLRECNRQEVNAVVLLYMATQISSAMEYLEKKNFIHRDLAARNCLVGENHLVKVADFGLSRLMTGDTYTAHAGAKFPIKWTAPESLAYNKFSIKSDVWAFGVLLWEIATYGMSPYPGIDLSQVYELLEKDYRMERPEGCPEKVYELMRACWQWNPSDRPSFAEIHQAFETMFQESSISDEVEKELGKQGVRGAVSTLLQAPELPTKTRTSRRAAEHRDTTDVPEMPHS
Description for EGFR WT (pTet-On/Lx-1): Lx-1 cells were used because they lack background EGFR activity. A clone corresponding to the longest EGFR isoform (Genbank accession no. NM_005228.3/NP_005219.2 #21-176, Upstate Biotechnology) was used as a template to produce two mutant EGFR genes (coding for L858R and L861Q) by site-directed mutagenesis. The WT and the two sequence-verified mutants were transferred to a COOH-terminal Flag-tagged retroviral cytomegalovirus promoter-driven mammalian expression vector. The two Tet-On expression vectors, EGFR WT (Tet-On) and EGFRvIII (Tet-On), which were COOH-terminally Flag tagged, were generously provided by Dr. Abhijit Guha (University of Toronto, Toronto, Ontario, Canada).
Transient transfections of Lx-1 cells were done using Lipofectamine 2000 (Invitrogen) according to the manufacturer's protocol. For transfections of the WT, L858R, and L861Q constructs, 1 μg plasmid DNA was used for each transfection (each well of a 12-well plate). […]
For the EGFR phosphorylation ELISA, Reacti-Bind streptavidin-coated plates (Pierce) were coated with 2 μg/mL biotin-conjugated anti-Flag antibody (Sigma). […] Horseradish peroxidase activity was determined by reading the plates in a Victor2 plate reader following addition of the ELISA Femto substrate.

For the molecule `COc1cc2c(Nc3ccc(Cl)c(Cl)c3F)ncnc2cc1OC[C@@H]1C[C@@H]2CN(C)C[C@@H]2C1` [XL-647, N-(3,4-dichloro-2-fluorophenyl)-7-({[(3aR,5r,6aS)-2-methyloctahydrocyclopenta[c]pyrrol-5-yl]methyl}oxy)-6-(methyloxy)quinazolin-4-amine], the IC50 on EGFR WT (pTet-On/Lx-1) was determined as 0.005 µM; at c-Abl it was 0.337 ± 0.0036 µM; against c-Met, 0.332 ± 0.0507 µM; against Lck, 0.031 ± 0.0003 µM. Besides, in series [1], the “phosphorylation of EGFR, immunoblot” value was “inhibits phosphorylation of EGFR”. This molecule yielded a fraction unbound in “in vitro” of 0.04 to 0.09. Besides, the inhibition at 10 µM is -11.9% on Leukotriene D4, LTD4; 1.27% in [3]; 32.8% at Vasopressin 1. For the same molecule, the “subjects with SD lasting greater than 3 months” value in series [2] (human, in vivo) is reported as 16 subjects. Moreover, the MTD came to 300 mg in series [2] (single oral dose daily) and 4.68 mg/kg in [5]. For the same molecule, the results for the “Phospho AKT Ser473 % Cells” value in the series with Phospho AKT Ser473 (10 mg/kg), in the series on Phospho AKT Ser473 (30 mg/kg) and with Phospho AKT Ser473 (100 mg/kg) were 19 ± 2.1%, 12 ± 1.9% and 11 ± 1.9%, respectively. In addition, the “Phospho AKT Ser473 % Reduction” value is listed as 53.6^a % with Phospho AKT Ser473 (10 mg/kg), 72.4^a % in the series on Phospho AKT Ser473 (30 mg/kg) and 74.4^a % in the series with Phospho AKT Ser473 (100 mg/kg). Also, the “Inhibition, 10 μM XL-647” value in series [4] is on record as 32.32%. In addition, the “MTD converted to a fixed dose” value in series [6] (Intermittent 5&9 schedule) was 350 mg. Also, in series [6] (NSCLC, Day 228), the “subjects with unconfirmed partial response (PR)” value was “one”. The “other subjects with prolonged stable disease lasting greater than 3 months” value in series [6] (intermittent schedule) came to 14 subjects.
